Read-outs that look alike come from different tables or passages of the source.
Target: T1, MDR1 (P-glycoprotein) (Homo sapiens, UniProt P08183)
T1 construct: host or cells: MDCK (MDR1-MDCK; wild-type MDCK as comparator)
Test: MDR1-MDCK permeability and efflux assay (Papp, efflux ratio, effective efflux ratio)
Type: in vitro ADME
Conditions: dog; for Papp A→B at 1 h, 10 μM: pH 7.4, read-out: Papp AB MDR1
Description: The MDR1-MDCK effective efflux assay was performed as described in the BioFocus Standard Operating Procedure, ADME-SOP-56. Both wild-type (WT) and MDR1-MDCK cells (Solvo Biotechnology) were seeded onto 24-well Transwell plates at 2.35×10^5 cells per well and used in confluent monolayers after a 3 day culture at 37° C. under 5% CO2. For both cell types, test and control compounds (propranolol, vinblastine) were added (10 μM, 0.1% DMSO final, n=2) to donor compartments of the Transwell plate assembly in assay buffer (Hanks balanced salt solution supplemented with 25 mM HEPES, adjusted to pH 7.4) for both apical to basolateral (A>B) and basolateral to apical (B>A) measurements. Incubations were performed at 37° C., with samples removed from both donor and acceptor chambers at T=0 and 1 hour and compound analysed by mass spectrometry (LC-MS/MS) including an analytical internal standard.
Apparent permeability (Papp) values were determined from the relationship: Papp=[CompoundAcceptor T=end]×V Acceptor/([Compound Donor T=0]×V Donor)/incubation time×V Donor/Area×60×10^−6 cm/s
In this equation, V is the volume of each Transwell compartment (apical 125 μL, basolateral 600 μL), and concentrations are the relative MS responses for compound (normalized to internal standard) in the donor chamber before incubation and acceptor chamber at the end of the incubation, and Area is the area of cells exposed for drug transfer (0.33 cm^2).
Efflux ratios (Papp B>A/Papp A>B) were calculated for each compound from the mean Papp values in each direction for both wild-type and MDR1-MDCK cells.
In order to confirm the involvement of MDR1 in any efflux seen, an “effective efflux ratio” (EER) was calculated by comparing compound efflux ratios (ER) in the two cell types by the following equation: EER=ER(MDR1-MDCK)/ER(wild-type MDCK)
This ratio illustrates the effect of the over-expressed MDR1 normalised for the background movement of compound through the wild-type cells.
Lucifer Yellow (LY) was added to the apical buffer in all wells to assess viability of the cell layer. […] Recoveries<50% indicates compound solubility, stability or binding issues, thereby reducing the reliability of a result.
The inherent ability of a potential drug molecule to penetrate the blood brain barrier and avoid efflux by transporters expressed in the brain, can be roughly correlated with the Papp(A-B) and the efflux ratio (as defined above), respectively. A potential drug molecule with an apparent permeability<7 (10^−6 cm/sec) has low permeability (+), >7 (10^−6 cm/sec) but <10 (10^−6 cm/sec) has moderate permeability (++), >10 (10^−6 cm/sec) but <20 (10^−6 cm/sec) has good permeability (+++), and >20 (10^−6 cm/sec) is highly permeable (++++). High permeability in the WT and MDCK II cell permeability assay increases the probability of blood brain barrier penetration and access to the CNS. A potential drug molecule in the above assay system with an efflux ratio or effective efflux ratio of <1 has low probability of being an efflux substrate (++++), >1 but <2 has moderate probability of being an efflux substrate (+++), >2 but <3 has has an increased probability of being an efflux substrate (++), and >3 has a high probability of being an efflux substrate (+). If a potential drug molecule is an efflux substrate, the molecule will have a low probability of reaching exposures in the brain (site of action) that will result in efficacious levels of receptor occupancy.

[1] = MDCK-MDR1, pH 7.4, ER(MDR1-MDCK)/ER(wild-type MDCK), read-out: EER (Effective Efflux Ratio)
[2] = MDCK-MDR1, pH 7.4, Papp B>A/Papp A>B, MDR1-MDCK cells, read-out: ER MDR1 (Efflux Ratio)

T1 sequence (P08183 whole entry): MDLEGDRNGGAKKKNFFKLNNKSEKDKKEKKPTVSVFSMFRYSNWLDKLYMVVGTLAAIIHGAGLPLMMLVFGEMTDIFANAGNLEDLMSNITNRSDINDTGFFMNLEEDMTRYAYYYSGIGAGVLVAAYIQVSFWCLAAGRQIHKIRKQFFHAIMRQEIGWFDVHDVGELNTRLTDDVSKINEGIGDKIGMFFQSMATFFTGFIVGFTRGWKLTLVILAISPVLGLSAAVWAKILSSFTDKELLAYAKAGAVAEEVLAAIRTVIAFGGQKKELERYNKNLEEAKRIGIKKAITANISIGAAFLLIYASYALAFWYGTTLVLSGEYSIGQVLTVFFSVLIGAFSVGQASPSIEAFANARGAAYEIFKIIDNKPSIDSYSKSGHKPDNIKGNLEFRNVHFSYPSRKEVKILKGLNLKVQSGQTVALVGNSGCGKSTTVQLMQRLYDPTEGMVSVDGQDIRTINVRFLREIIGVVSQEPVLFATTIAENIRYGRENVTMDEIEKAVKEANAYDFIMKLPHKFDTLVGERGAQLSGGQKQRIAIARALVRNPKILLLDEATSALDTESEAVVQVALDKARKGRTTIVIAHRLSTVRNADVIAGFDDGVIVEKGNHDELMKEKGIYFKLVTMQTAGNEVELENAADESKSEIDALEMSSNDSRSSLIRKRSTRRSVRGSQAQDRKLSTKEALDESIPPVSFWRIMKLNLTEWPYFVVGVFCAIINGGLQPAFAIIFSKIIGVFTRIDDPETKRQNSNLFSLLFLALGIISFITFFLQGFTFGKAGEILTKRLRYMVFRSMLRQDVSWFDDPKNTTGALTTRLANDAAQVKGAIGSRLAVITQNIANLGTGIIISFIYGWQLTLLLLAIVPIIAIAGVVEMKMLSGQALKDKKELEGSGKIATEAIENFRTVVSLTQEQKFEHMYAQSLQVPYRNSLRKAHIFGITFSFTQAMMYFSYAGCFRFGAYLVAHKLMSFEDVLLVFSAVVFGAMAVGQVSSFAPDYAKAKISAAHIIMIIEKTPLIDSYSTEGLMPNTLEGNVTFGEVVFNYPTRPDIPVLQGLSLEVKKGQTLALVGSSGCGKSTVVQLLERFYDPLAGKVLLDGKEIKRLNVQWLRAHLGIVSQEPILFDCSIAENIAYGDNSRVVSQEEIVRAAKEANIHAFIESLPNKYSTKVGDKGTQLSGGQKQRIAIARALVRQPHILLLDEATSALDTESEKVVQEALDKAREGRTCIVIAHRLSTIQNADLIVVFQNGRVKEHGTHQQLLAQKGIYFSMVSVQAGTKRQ

Structure (SMILES) | efflux ratio at 1 h, 10 μM [1] | efflux ratio at 1 h, 10 μM [2] | Papp A→B at 1 h, 10 μM (MDR1-MDCK cells) [×10⁻⁶ cm/s]
Cc1cncc(N2CC3(CN(C(=O)N4c5ccc(F)cc5OCC4C)C3)C2)n1 (single isomer, unassigned) [20-2-A] | 1 to 2 | 1 to 2 | > 20
O=C(N1CC2(C1)CN(c1cnccn1)C2)N1CCOc2cc(Cl)ccc21 [8-3] | 1 to 2 | 1 to 2 | > 20
Cc1cncc(N2CC3(CN(C(=O)N4c5ccc(F)cc5OCC4C)C3)C2)n1 (stereo not drawn) [20-2] | 1 to 2 | 1 to 2 | > 20
COc1ccnc(N2CC3(CN(C(=O)N4c5ccc(Cl)cc5OCC4C)C3)C2)c1 (stereo not drawn) [20-8] | < 1 | < 1 | > 20
O=C(N1CC2(C1)CN(c1ccc(F)cn1)C2)N1CCOCc2cc(Cl)ccc21 [8-4] | 1 to 2 | 1 to 2 | > 20
CC1COc2cc(F)ccc2N1C(=O)N1CC2(C1)CN(c1noc3ccccc13)C2 (stereo not drawn) [4-3] | < 1 | < 1 | > 20
Cc1ccnc(N2CC3(CN(C(=O)N4c5ccc(Cl)cc5OCC4C)C3)C2)n1 (single isomer, unassigned) [20-12-B] | 1 to 2 | 1 to 2 | > 20
CC1COc2cc(Cl)c(F)cc2N1C(=O)N1CC2(C1)CN(c1ncccn1)C2 (single isomer, unassigned) [19-2-B] | < 1 | 1 to 2 | > 20
Cc1ccnc(N2CC3(CN(C(=O)N4c5ccc(F)cc5OCC4C)C3)C2)c1 (single isomer, unassigned) [20-4-B] | 1 to 2 | < 1 | > 20
COc1ccnc(N2CC3(CN(C(=O)N4c5ccc(Cl)cc5OCC4C)C3)C2)c1 (single isomer, unassigned) [20-8-B] | < 1 | < 1 | > 20
CC1COc2cc(Cl)ccc2N1C(=O)N1CC2(C1)CN(c1noc3cccnc13)C2 (single isomer, unassigned) [18-3-B] | < 1 | < 1 | > 20
COc1ccnc(N2CC3(CN(C(=O)N4c5ccc(Cl)cc5OCC4C)C3)C2)n1 (stereo not drawn) [20-9] | < 1 | < 1 | > 20
O=C(N1CC2(C1)CN(c1ccccn1)C2)N1CCC(O)c2cc(Cl)ccc21 (single isomer, unassigned) [13-2-B] | > 3 | > 3 | > 20
COc1ccnc(N2CC3(CN(C(=O)N4c5ccc(Cl)cc5OCC4C)C3)C2)n1 (single isomer, unassigned) [20-9-B] | 1 to 2 | 1 to 2 | > 20
Cc1ccnc(N2CC3(CN(C(=O)N4c5ccc(Cl)cc5OCC4C)C3)C2)c1 (stereo not drawn) [20-11] | < 1 | < 1 | > 20
CC1COc2cc(F)ccc2N1C(=O)N1CC2(C1)CN(c1cc(C#N)ccn1)C2 (single isomer, unassigned) [20-3-B] | 1 to 2 | 1 to 2 | > 20
O=C(N1CC2(C1)CN(c1ccc(F)cn1)C2)N1CCOc2cc(Cl)ccc21 [9-7] | 1 to 2 | < 1 | > 20

Structure (SMILES) | efflux ratio at 1 h, 10 μM [1] | efflux ratio at 1 h, 10 μM [2] | Papp A→B at 1 h, 10 μM (MDR1-MDCK cells) [×10⁻⁶ cm/s]
CC1COc2cc(Cl)c(F)cc2N1C(=O)N1CC2(C1)CN(c1cccnn1)C2 (single isomer, unassigned) [19-4-A] | 2 to 3 | 2 to 3 | > 20
Cc1nccnc1N1CC2(CN(C(=O)N3c4ccc(Cl)cc4OCC3C)C2)C1 (single isomer, unassigned) [20-10-A] | 1 to 2 | 1 to 2 | > 20
O=C(N1CC2(C1)CN(c1ccc(F)cn1)C2)N1CCc2cc(Cl)ccc21 [8-11] | < 1 | < 1 | > 20
CC1COc2cc(F)c(F)cc2N1C(=O)N1CC2(C1)CN(c1ccc(F)cn1)C2 (stereo not drawn) [19-5] | 1 to 2 | 1 to 2 | > 20
CC1COc2cc(F)c(F)cc2N1C(=O)N1CC2(C1)CN(c1ncccn1)C2 (single isomer, unassigned) [19-1-B] | < 1 | 1 to 2 | > 20
CC1COc2cc(Cl)c(F)cc2N1C(=O)N1CC2(C1)CN(c1cccnn1)C2 (stereo not drawn) [19-4] | < 1 | < 1 | > 20
O=C(N1CC2(C1)CN(c1ccc(F)cn1)C2)N1CCC(O)c2cc(Cl)ccc21 (single isomer, unassigned) [13-1-A] | > 3 | > 3 | > 20
O=C(N1CC2(C1)CN(c1ccc(F)cn1)C2)N1CCC(F)(F)c2cc(Cl)ccc21 [17-1, (6-chloro-4,4-difluoro-3,4-dihydroquinolin-1(2H)-yl)(6-(5-fluoropyridin-2-yl)-2,6-diazaspiro[3.3]heptan-2-yl)methanone] | 1 to 2 | < 1 | > 20
CC1COc2cc(Cl)ccc2N1C(=O)N1CC2(C1)CN(c1noc3cccnc13)C2 (stereo not drawn) [18-3] | < 1 | < 1 | > 20
O=C(N1CC2(C1)CN(c1ccccn1)C2)N1CCOc2cc(Cl)ccc21 [8-2] | 1 to 2 | < 1 | > 20
O=C(N1CC2(C1)CN(c1ccc(F)cn1)C2)N1CCC(O)c2cc(Cl)ccc21 (stereo not drawn) [13-1, (6-chloro-4-hydroxy-3,4-dihydroquinolin-1(2H)-yl)(6-(5-fluoropyridin-2-yl)-2,6-diazaspiro[3.3]heptan-2-yl)methanone] | > 3 | > 3 | > 20
CC1COc2cc(F)ccc2N1C(=O)N1CC2(C1)CN(c1noc3ccccc13)C2 (single isomer, unassigned) [4-3-B] | < 1 | < 1 | > 20
CC1COc2cc(Cl)ccc2N1C(=O)N1CC2(C1)CN(c1cccnn1)C2 (single isomer, unassigned) [9-1-B] | 2 to 3 | > 3 | > 20
Cc1nccnc1N1CC2(CN(C(=O)N3c4ccc(Cl)cc4OCC3C)C2)C1 (stereo not drawn) [20-10] | < 1 | < 1 | > 20
O=C(N1CC2(C1)CN(c1cnccn1)C2)N1CCc2cc(Cl)ccc21 [8-14] | < 1 | 1 to 2 | > 20
O=C(N1CC2(C1)CN(c1ccccn1)C2)N1CCOCc2cc(Cl)ccc21 [8-12] | 2 to 3 | 2 to 3 | > 20

Reference: patent US12152038B2, “Vasopressin receptor antagonists and products and methods related thereto” (Neumora Therapeutics, Inc., priority 2017, dated 2024)
